Several values for one entry are separate records, joined by “and”; a condition that tells them apart may be missing. Identical values can stand only once. Like-named read-outs stand apart in the source and are kept apart here.
What was measured:
[1] = Protein binding in CD-1 mouse plasma (equilibrium dialysis); conditions: dialysis conditions; no binding reported
[2] = Metabolic stability in dog liver S9; assay type: in vitro ADME, Beagle dog; conditions: for half-life at 1 μM / microsomal CLint at 1 μM: pH 7.2
Description: Incubation Buffer (PBK): 50 mM potassium phosphate buffer was prepared from 1 M potassium phosphate buffer, pH 7.2. […] The dilution of […] was prepared by 90% methanol/10% DMSO, then 10 μM working solutions were prepared by diluting the 0.1 mM intermediates with 50 mM PBK. […] Prior to use, the stock solutions were brought to room temperature and thoroughly mixed. […] Cofactors Solutions: the mixture of cofactors solution was made at 10 mM of NADPH and 10 mM of UDPGA in PBK buffer.
The incubation was carried out in 96-well plates. The liver S9 working solutions were added to 96-well plates (80 μL/well) in duplicate. […] Reaction was initiated by adding cofactor mixture 10 μL/well. The plates were incubated at 37° C. in a water bath with shaking. […] The final organic solvent content in the incubation was ≤1%.
At specified time points, i.e., 5, 10, 20, 30 and 60 minutes, NCF60 (without adding NADPH (Nicotinamide-adenine dinucleotide phosphate, reduced form) and UDPGA (Uridine 5′-diphosphoglucuronic acid trisodium salt) replaced with PBK buffer reaction was stopped by adding three volumes of stop solution. The time zero (To) samples were prepared by adding three volumes of stop solution to liver S9 samples, followed by addition of test article or control, and cofactor mixture solution 10 μL/well.
Subsequently, 100 μL of supernatant.
Positive controls: 7-ethoxycoumarin and 7-hydroxycoumarin.

[3] = Tissue binding in CD-1 mouse brain homogenate (equilibrium dialysis); conditions: for stability in mouse brain homogenate / % Unbound Experimental / Analyte Peak area/IS Peak area CD (brain homogenate side) / Analyte Peak area/IS Peak area CR (buffer side) / Analyte Peak area/IS Peak area Co (time zero): 2 μM; for stability in mouse brain homogenate: dialysis conditions; for % Unbound Experimental: 4 hr; for Analyte Peak area/IS Peak area CD (brain homogenate side) / Analyte Peak area/IS Peak area CR (buffer side): 4 hr dialysis (COMPOUND A 1 hr)
[4] = Enzyme and uptake assays; assay type: biochemical; conditions: human recombinant; [3H]NE incorporation into cells; read-out: IC50, Norepinephrine transporter uptake (h)
Description: (§1) A study was conducted to test 5 compounds in cellular and nuclear receptor functional and enzyme and uptake assays.
The results are expressed as a percent of control specific activity
and as a percent inhibition of control specific activity
The IC50 values (concentration causing a half-maximal inhibition of control specific activity), EC50 values (concentration producing a half-maximal increase in control basal activity), and Hill coefficients (nH) were determined by non-linear regression analysis of the inhibition/concentration-response curves generated with mean replicate values using Hill equation curve fitting
(§2) where Y=specific activity, A=left asymptote of the curve, D=right asymptote of the curve, C=compound concentration, C50=IC50 or EC50, and nH=slope factor. This analysis was performed using software developed at Cerep (Hill software) and validated by comparison with data generated by the commercial software SigmaPlot® 4.0 for Windows® (© 1997 by SPSS Inc.).
In Vitro Pharmacology. Results showing an inhibition (or stimulation for assays run in basal conditions) higher than 50% were considered to represent significant effects of the test compounds. Results showing an inhibition (or stimulation) between 25% and 50% are indicative of weak to moderate effects. Results showing an inhibition (or stimulation) lower than 25% were not considered significant and mostly attributable to variability of the signal around the control level. […]

[5] = Cellular and nuclear receptor functional assays; assay type: cell-based; conditions: human recombinant (CHO cells); for Kb: apparent dissociation constant, modified Cheng Prusoff equation, read-out: kB, 5-HT2B(h) (antagonist effect); for IC50: serotonin (30 nM), IP1, HTRF, read-out: IC50, 5-HT2B(h) (antagonist effect)
Description: as §1
The results are expressed as a percent of control agonist response or inverse agonist response and as a percent inhibition of control agonist response
The EC50 values (concentration producing a half-maximal response) and IC50 values (concentration causing a half-maximal inhibition of the control agonist response) were determined by non-linear regression analysis of the concentration-response curves generated with mean replicate values using Hill equation curve fitting […]
as §2, with “Y=response,” for “Y=specific activity,”, “and C50=EC50” for “C50=IC50”, “IC50,” for “EC50,”
For the antagonists, the apparent dissociation constants (KB) were calculated using the modified Cheng Prusoff equation where A=concentration of reference agonist in the assay, and EC50A=EC50 value of the reference agonist.
In Vitro Pharmacology. Results showing an inhibition (or stimulation for assays run in basal conditions) higher than 50% were considered to represent significant effects of the test compounds. Results showing an inhibition (or stimulation) between 25% and 50% are indicative of weak to moderate effects. Results showing an inhibition (or stimulation) lower than 25% were not considered significant and mostly attributable to variability of the signal around the control level.

[6] = 80 mg/kg PO; for Clinical observation (tolerability): beagle dogs; for plasma concentration of the analog itself: LLOQ 3.0 ng/mL; for Tlast: COMPOUND C (parent) in plasma
[7] = Beagle, dog liver S9, 1 μM, read-out: CLint(LS9)
[8] = dog liver S9, 1 μM, NCF60 (no cofactors, 60 min)
[9] = 1 μM in Beagle Dog liver S9 fractions
[10] = 1 μM in Beagle Dog liver S9 fractions, read-out: CLint(mic.)

SMILES | stability in the mouse plasma [1] | half-life at 1 μM ([2]; Beagle, dog liver S9, 1 μM) [min] | microsomal CLint at 1 μM [2, 7] [µL/min/mg] | % Remaining ([2]; dog liver S9, 1 μM, 0 min) [%] | Analyte Peak area/IS Peak area Mean × 100 (n = 2) ([2]; dog liver S9, 1 μM, 0 min) | % Remaining ([2]; dog liver S9, 1 μM, 5 min) [%] | Analyte Peak area/IS Peak area Mean × 100 (n = 2) ([2]; dog liver S9, 1 μM, 5 min) | % Remaining ([2]; dog liver S9, 1 μM, 10 min) [%] | Analyte Peak area/IS Peak area Mean × 100 (n = 2) ([2]; dog liver S9, 1 μM, 10 min) | % Remaining ([2]; dog liver S9, 1 μM, 20 min) [%] | Analyte Peak area/IS Peak area Mean × 100 (n = 2) ([2]; dog liver S9, 1 μM, 20 min) | % Remaining ([2]; dog liver S9, 1 μM, 30 min) [%] | Analyte Peak area/IS Peak area Mean × 100 (n = 2) ([2]; dog liver S9, 1 μM, 30 min) | % Remaining ([2]; dog liver S9, 1 μM, 60 min) | Analyte Peak area/IS Peak area Mean × 100 (n = 2) ([2]; dog liver S9, 1 μM, 60 min) | % Remaining [2, 8] [%] | Analyte Peak area/IS Peak area Mean × 100 (n = 2) [2, 8] | IC50 [4] [nM] | Kb [5] [nM] | IC50 [5] [nM] | also measured
CCOc1ccccc1OC[C@@H]1CN(C(=O)OC(OC(=O)[C@H](N)C(C)C)C(C)C)CCO1 (stereo partly shown) [COMPOUND C] | instability | 12 | 115 | 100 | 8.27 | 17 | 1.44 | 12 | 0.962 | 8.7 | 0.720 | 6.1 | 0.501 | 1.41% and 1.4% | 0.116 | 5.1 | 0.418 | 1800 | 2000 | 13000 | stability in mouse brain homogenate [3]: unstable; % Unbound Experimental ([3]; mouse brain homogenate): 20.9%; Analyte Peak area/IS Peak area CD (brain homogenate side) ([3]; mouse brain homogenate): 0.002 and 0.003; Analyte Peak area/IS Peak area CR (buffer side) ([3]; mouse brain homogenate): 0.001; Analyte Peak area/IS Peak area Co (time zero) ([3]; mouse brain homogenate): 0.036 and 0.037 and 0.041; Clinical observation (tolerability) [6]: well tolerated; plasma concentration of the analog itself [6]: well above LLOQ; Tlast ([6]; female beagle dogs): 16.0 h; Tlast ([6]; male beagle dogs): 16.0 h
CCOc1ccccc1OC[C@@H]1CN(C(=O)OC(C)OC(=O)[C@@H](N)C(C)C)CCO1 (stereo partly shown) [COMPOUND A] | instability | 11 | 126 | 100 | 12.2 | 8.0 | 0.98 | 8.8 | 1.078 | 5.2 | 0.635 | 3.1 | 0.381 | 0.8% | 0.097 | 2.0 | 0.248 | 390 | 1000 | 6900 | stability in mouse brain homogenate [3]: unstable; Analyte Peak area/IS Peak area CR (buffer side) ([3]; mouse brain homogenate): 0.0003 and 0.0002; Analyte Peak area/IS Peak area Co (time zero) ([3]; mouse brain homogenate): 0.010 and 0.012; % remaining after 1 hr ([3]; mouse brain homogenate, 1 hr (data not shown)): ^dCan't be determined due to instability of test article, which has 1.3% remaining after 1 hr (data not shown).; Clinical observation (tolerability) [6]: well tolerated; plasma concentration of the analog itself [6]: mostly below the LLOQ
CCOc1ccccc1OCC1CN(C(=O)OC(C)OC(=O)[C@H](N)C(C)C)CCO1 (stereo partly shown) [COMPOUND D] |  |  |  |  |  |  |  |  |  |  |  |  |  |  |  |  |  | 870 | 750 | 4900 | % Remaining at 60 min [2, 9]: 3.10%; half-life at 1 μM [2, 9]: 12.6 min; microsomal CLint at 1 μM [2, 10]: 110 µL/min/mg
CCOc1ccccc1OCC1CN(C(=O)OC(OC(=O)[C@@H](N)C(C)C)C(C)C)CCO1 (stereo partly shown) [COMPOUND E] |  |  |  |  |  |  |  |  |  |  |  |  |  |  |  |  |  | 2600 | 630 | 4200 | % Remaining at 60 min [2, 9]: 0.25%; half-life at 1 μM [2, 9]: 8.3 min; microsomal CLint at 1 μM [2, 10]: 167 µL/min/mg
CCOc1ccccc1OC[C@@H]1CN(C(=O)OC(OC(=O)[C@@H](N)C(C)C)C(C)C)CCO1 (stereo partly shown) [COMPOUND B] | instability | 7.3 | 190 | 100 | 7.78 | 2.9 | 0.226 | 4.0 | 0.309 | 2.1 | 0.166 | 0.5 | 0.035 | 0.09% and 0.1% | 0.007 | 0.0 | 0.000 | 1900 | 2100 | 14000 | stability in mouse brain homogenate [3]: unstable; % Unbound Experimental ([3]; mouse brain homogenate): 15.5%; Analyte Peak area/IS Peak area CD (brain homogenate side) ([3]; mouse brain homogenate): 0.009 and 0.010; Analyte Peak area/IS Peak area CR (buffer side) ([3]; mouse brain homogenate): 0.001 and 0.002; Analyte Peak area/IS Peak area Co (time zero) ([3]; mouse brain homogenate): 0.057 and 0.059 and 0.064; Clinical observation (tolerability) [6]: well tolerated; plasma concentration of the analog itself [6]: mostly below the LLOQ
